The source of these data is US5922681A, “Endothelin antagonists” (Warner-Lambert Company, priority 1992, dated 1999).

Non-standard residues stand in square brackets, D forms with d. Residues, ends and D or L forms follow the SMILES beside them. No end group written: not given here.

Broadly, the IC50 is the concentration at which inhibition is half-maximal.

Assay [1] deals with endothelin receptor (Rat Heart). As to the kind of experiment: [125I]-ET-1 receptor binding, Rat Heart. As to the method: (§1) The compounds of Formula I are valuable antagonists of endothelin. […] Compounds of Formula I were tested for their ability to inhibit [^125 I]-ET-1([^125 I]-Endothelin-1) binding in a receptor assay according to the following procedures Doherty, A. M., et al, J. Cardiovascul. Pharmacol. 17(Suppl 7):S59-61 (1991) and Doherty, A. M., et al, Bio. Org.

Assay [2] concerns the target endothelin receptor (Human Placenta). The assay can be described thus: [125I]-ET-1 receptor binding, Human Placenta. On the procedure: as §1
The target of assay [3] is T1, ETA (rabbit renal artery vascular smooth muscle cells) (Oryctolagus cuniculus, UniProt A5A8K3).
T1 construct: The cells used were rabbit renal artery vascular smooth muscle cells; endogenous in cells; host or cells: rabbit renal artery vascular smooth muscle cells
T1 sequence (A5A8K3 21-427): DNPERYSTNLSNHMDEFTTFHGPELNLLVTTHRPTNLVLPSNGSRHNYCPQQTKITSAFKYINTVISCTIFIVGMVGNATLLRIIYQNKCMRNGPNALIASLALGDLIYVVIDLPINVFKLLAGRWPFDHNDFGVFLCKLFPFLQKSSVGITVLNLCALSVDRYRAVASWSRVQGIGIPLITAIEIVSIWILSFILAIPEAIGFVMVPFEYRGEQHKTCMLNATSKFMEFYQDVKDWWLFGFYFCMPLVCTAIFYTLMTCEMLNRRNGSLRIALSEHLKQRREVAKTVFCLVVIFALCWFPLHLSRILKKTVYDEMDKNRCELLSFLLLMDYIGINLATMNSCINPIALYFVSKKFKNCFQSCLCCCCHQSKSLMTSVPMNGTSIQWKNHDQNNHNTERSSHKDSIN
As to the kind of experiment: Endothelin receptor binding assay-A (ERBA-A), intact cell binding of [125I]-ET-1. To be noted: rabbit renal artery vascular smooth muscle cells, [125I]-ET-1 25 pM. On the procedure:
(§2) The compounds of Formula I are valuable antagonists of endothelin. […] Compounds of Formula I were tested for their ability to inhibit [^125 I]-ET-1([^125 I]-Endothelin-1) binding in a receptor assay according to the following procedures Doherty, A. M., et al, J. Cardiovascul. Pharmacol. 17(Suppl 7):S59-61 (1991) and Doherty, A. M., et al, Bio. Org. Med. Chem. Lett. in press (1992):
ENDOTHELIN RECEPTOR BINDING ASSAY-A (ERBA-A) INTACT CELL BINDING OF [^125 I]-ET-1
The cells used were rabbit renal artery vascular smooth muscle cells grown in a 48-well dish (1 cm^2) (confluent cells).
The growth media was Dulbeccos Modified Eagles/Ham's F12 which contained 10% fetal bovine serum and antibiotics (penicillin/streptomycin/fungizone).
The assay buffer was a medium 199 containing Hanks salts and 25 mM Hepes buffer (Gibco 380-2350AJ), supplemented with penicillin/streptomycin/fungizone (0.5%) and bovine serum albumin (1 mg/mL).
Amersham radioiodinated endothelin-1 [^125 I]-ET-1 was used at final concentration of 20,000 cpm/0.25 mL (25 pM).
Second, remove the assay buffers, place the dish on ice, and add 150 μL of cold assay buffer described above to each well. Third, add 50 μL each of cold [^125 I]-ET-1 and competing ligand to the solution (at the same time if possible). Next, place dish in a 37° C. water bath for about 2 hours and gently agitate the dish every 15 minutes. Discard the radioactive incubation mixture in the sink and wash wells three times with […] of cold phosphate buffered saline. Last, add […] of 0.25 molar sodium hydroxide, agitate for 1 hour on a rotator, and then transfer the sodium hydroxide extract to gamma counting tubes and count the radioactivity.

Assay [4] deals with T2, ETB (rat cerebellar membranes) (Rattus norvegicus, UniProt P21451).
T2 construct: thaw one aliquot of frozen rat cerebellar membranes; from tissue; host or cells: rat cerebellar membranes
T2 sequence (P21451 27-442): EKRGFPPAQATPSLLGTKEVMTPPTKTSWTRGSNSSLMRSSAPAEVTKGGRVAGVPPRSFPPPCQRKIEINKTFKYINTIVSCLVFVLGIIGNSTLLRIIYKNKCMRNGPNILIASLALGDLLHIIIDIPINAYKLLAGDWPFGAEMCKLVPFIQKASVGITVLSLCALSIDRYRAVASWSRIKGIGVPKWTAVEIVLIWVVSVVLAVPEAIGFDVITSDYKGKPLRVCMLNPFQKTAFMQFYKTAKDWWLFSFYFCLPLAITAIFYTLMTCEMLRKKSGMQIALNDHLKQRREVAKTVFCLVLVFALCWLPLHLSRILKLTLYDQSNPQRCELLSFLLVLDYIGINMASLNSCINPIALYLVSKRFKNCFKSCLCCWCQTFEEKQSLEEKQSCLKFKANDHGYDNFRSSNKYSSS
The assay can be described thus: Endothelin receptor binding assay-B (ERBA-B), [125I]-ET-1 binding in rat cerebellar membranes. To be noted: rat cerebellar membranes, [125I]-ET-1 25 pM. As to the method: as §2
ENDOTHELIN RECEPTOR BINDING ASSAY-B (ERBA-B) [^125 I]-ET-1 BINDING IN RAT CEREBELLAR MEMBRANES
The tissue is made up of 20 mM tris(hydroxy-methyl)aminomethane hydrochloride (Trizma) buffer, 2 mM ethylenediaminetetra acetate, 100 μM phenylmethylsulfonyl fluoride.
First, thaw one aliquot of frozen rat cerebellar membranes (2 mg protein in 0.5 mL). Next, add 0.5 mL membrane aliquot to 4.5 mL cold tissue buffer, polytron at 7,500 revolutions per minute for 10 seconds. Finally, dilute tissue suspension 1/100 (0.1 mL suspension+9.9 mL tissue buffer), polytron again, and place ice.
Medium 199 with Hank's salts plus 25 mM Hepes+1 mg/mL bovine serum albumin.
Amersham [^125 I]-ET-1 (aliquots of 2×10^6 cpm per […] aliquot of [^125 I]-ET-1 with 5.2 mL dilution buffer, place on ice until use (final concentration will be 20,000 cpm per tube, or 25 pM).
Add 50 μL each of cold [^125 ]-ET-1 and competing ligand to tubes on ice. Mix in 150 μL of tissue to each tube, vortex briefly, then tap to force all liquids to bottom (total assay volume=250 μL). Then place the tubes in a 37° C. water bath for 2 hours.
Add 2.5 mL cold wash buffer (50 mM Trizma buffer) to each tube, filter, and then wash tube with additional 2.5 mL wash buffer and add to filter. Finally, wash filters with an additional 2.5 mL of cold wash buffer.
Count filters for radioactivity in gamma counter.

In assay [5] the test system is endothelin-stimulated arachidonic acid release in cultured vascular smooth muscle cells. As to the kind of experiment: AAR assay for antagonist activity. The class given is cell-based, rabbit. To be noted: ET-1 0.3 nM. As to the method:
AAR Assay for Antagonist Activity
Antagonist activity is measured by the ability of added compounds to reduce endothelin-stimulated arachidonic acid release in cultured vascular smooth muscle cells as arachidonic acid release (AAR). [^3 H] Arachidonic Acid Loading Media (LM) is DME/F12+0.5% FCS×0.25 mCi/mL [^3 H] arachidonic acid (Amersham). Confluent monolayers of cultured rabbit renal artery vascular smooth muscle cells were incubated in 0.5 mL of the LM over 18 hours, at 37° C., in 5% CO2. The LM was aspirated and the cells were washed once with the assay buffer (Hank's BSS+10 mM HEPES+fatty acid-free BSA (1 mg/mL), and incubated for 5 minutes with 1 mL of the prewarmed assay buffer. This solution was aspirated, followed by an additional 1 mL of prewarmed assay buffer, and further incubated for another 5 minutes. A final 5-minute incubation was carried out in a similar manner. […] This solution was then collected, […] of scintillation cocktail was added, and the amount of [^3 H] arachidonic acid was determined in a liquid scintillation counter.

Assay [6] has as its system ET-1-induced vasoconstriction. As to conditions: isolated porcine coronary arteries; cited from earlier work.
For assay [7], the system named is ETA receptor over the ETB subtype. To be noted: cited from earlier work.
Assay [8] relates to endothelin-induced arachidonic acid release in vascular smooth muscle cells (ETA). As to conditions: cited from earlier work.
Assay [9] concerns endothelin-stimulated constriction in the rabbit femoral renal (ETA), and pulmonary arteries (ETB). To be noted: cited from earlier work.
Assay [10] relates to ETB. As to conditions: isolated, endothelium-intact porcine pulmonary arteries; cited from earlier work.
In assay [11] the test system is ET receptor. To be noted: cited from earlier work.
The subject of assay [12] is ET-1-induced vasoconstriction. To be noted: isolated rabbit aorta; cited from earlier work.
For assay [13], the system named is pressor response to ET-1. To be noted: IV bolus 1 mg/kg; cited from earlier work.
The test system of assay [14] is ET-1-induced arrythmia. To be noted: rats; cited from earlier work.
For assay [15], the system named is vasoconstriction of the basilar artery. To be noted: canine subarachnoid hemorrhage, intracisternal 0.1 mg; cited from earlier work.

For `C[C@H]1CCCC[C@@H]1OC(=O)N[C@](C)(Cc1c[nH]c2ccccc12)C(=O)N[C@H](CC(=O)O)Cc1ccccc1` (relative stereo) [Compound 1, (1S-trans)-N-[α-methyl-N-[[(2-methyl-cyclohexyl)-oxy]carbonyl]-D-tryptophyl]-L-3-(phenylmethyl)-β-alanine], the concentration for half-maximal inhibition (IC50) in [1] amounted to 9.25 µM; in [2] it was 0.72 µM; in [3], 46 µM; in assay [4] it was 1.5 µM.
Take `C[C@@](Cc1c[nH]c2ccccc12)(NC(=O)OC1C2CC3CC(C2)CC1C3)C(=O)N[C@H](CC(=O)O)Cc1ccccc1` (relative stereo) [Compound 4, [S-(R*,R*)]-β-[[3-(1H-indol-3-yl)-2-methyl-1-oxo-2-[[(tricyclo[3.3.1.1^3,7]dec-2-yloxy)carbonyl]-amino]propyl]amino]benzenebutanoic acid]: the IC50 in assay [1] came out at 47.3 µM; in assay [2], 58.3 µM. Moreover, the “AAR IC50 (μM) (Antag) % inhib at 10 μM” value in [5] stood at 62.4%.
Regarding `CC(C)C[C@@H]1NC(=O)[C@@H](C(C)C)NC(=O)[C@@H]2CCCN2C(=O)[C@@H](CC(=O)O)NC(=O)[C@@H](Cc2c[nH]c3ccccc23)NC1=O` [BQ-123] (cyclo(L[dW][dD]P[dV])), the “Antagonism of ET-1-induced vasoconstriction” value in assay [6] is recorded as “antagonize”.
Consider “Ac-(β-phenyl)D-Phe-L-Leu-L-Asp-L-lle-L-lle-L-Trp trifluoroacetate [PD 142893]”, for which the “Binding selectivity for the ETA receptor over the ETB subtype” value in [7] is reported as “tenfold”. In addition, in assay [8], the “Antagonism of endothelin-induced arachidonic acid release” value was “functional antagonist”. The “Antagonism of endothelin-stimulated constriction” value in assay [9] was “antagonizes”.
In the case of “ET[1,3,11,15-Ala]: linear ET analog, reported selective ETB agonist (ASASSLMDKEAVYFAHLDIIW; Endothelin-1; UniProt P05305 53-73, looked up, variant C1A C3A C11A C15A)”, the Vasorelaxation result in assay [10] is “caused vasorelaxation”.
For “ET[1-20]: ET-1 lacking the C-terminal amino acid (Trp-21) (CSCSSLMDKECVYFCHLDII; ends and bridges not checked; cysteine pairing not given here; UniProt P05305 53-72, looked up, fragment)”, the “Functional / vasoconstrictor activity, fold less” value in assay [11] was “approximately 1000 fold”.
As for ET[6-21, 1,3,11,15-Ala], the Vasorelaxation result in assay [10] is given as “caused vasorelaxation”.
Turning to ET[8-21,11,15-Ala], the Vasorelaxation entry in [10] is on record as “caused vasorelaxation”.
For the compound FR 139317, in assay [12], the “pA2, inhibition of ET-1-induced vasoconstriction” value is 7.2. In addition, in assay [13], the “Initial depressor response to ET-1” value is reported as “no effect” and the “Pressor response to ET-1” value is on record as “completely inhibited”. In addition, the ET-1-induced arrythmia result in assay [14] was “suppressed”. Moreover, the “Vasoconstriction of the basilar artery after 7 days” value in [15] is recorded as “significantly inhibited”.
“N-acetyl-ET[10-21]: truncated ET analog, reported selective ETB agonist (Ac-ECVYFCHLDIIW; cysteine pairing not given here; UniProt P05305 62-73, looked up, fragment)”: in [10], the Vasorelaxation entry is listed as “caused vasorelaxation”.
